Reference: patent publication US11179391B2, “Compound with kinase inhibitory activity and preparation method and use thereof” (priority 2017, dated 2021)

Assays:
Format in all cases: biochemical
CDK4/CycD3 = CDK4/CycD3 (Homo sapiens, UniProt P11802); assay: Determination of CDK activity (Caliper mobility shift, FAM-P8 peptide): CDK4; details: CDK4/CycD3; read-out: CDK4 enzymatic inhibitory activity (IC50)
Description: (§1) In vitro, CDK (CDK4, CDK6, CDK1, CDK2, CDK7, and CDK9) kinase activity was tested by the following method.
(§2) CDK and raw materials used here: CDK4/CycD3 (Carna, Cat. No 04-105, Lot. No 10CBS-0429 C, GST-CDK4(1-303end)/GST-CycD3(1-292end)); CDK6/cycD3 (Carna, Cat. No 04-107, Lot. No 09CBS-0622K, GST-CDK6(1-326(end))); CDK1/CyclinB (Millipore, Cat. 14-450k, Lot. No 25729U, His-CDK1+GST-cyclinB); CDK2/CycA2 (Carna, Cat. No 04-103, Lot. No 06CBS-3024, GST-CDK2 (1-298(end))); CDK7/CyclinH/MAT1 (Millipore, Cat. No 14-476M, Lot. No WAB0365-A, His-CDK7+GST-MAT1+cyclinH); CDK9/cyclinTl (Millipore, Cat. No 14-685K, Lot. No. 2476163-A, His-CDK9+cyclinTl); Peptide FAM-P8 (GL Biochem, Cat. No. 112396, Lot. No. P100804-XZ112396); ATP (Sigma, Cat. No. A7699-1G, CAS No. 987-65-5); DMSO (Sigma, Cat. No. D2650, Lot. No. 474382); EDTA (Sigma, Cat. No. E5134, CAS No. 60-00-4); 96-well plate (Corning, Cat. No. 3365, Lot. No. 22008026); 384-well plate (Corning, Cat. No. 3573, Lot. No. 12608008); Staurosporine (Sigma, Cat. No. S4400-1MG, Lot. No. 046K4080).
(§3) 1. Prepared 1× Kinase Buffer and Stop Buffer for the Test
2) 1× Kinase Base Buffer (CDK4).
(§4) 1) Diluted the compound to 50 times of the maximum concentration with 100% DMSO. For example, if the desired maximum inhibitory concentration is 10 μM, then a DMSO solution of 500 μM concentration is required.
(§5) 2) Transferred the compound to a 96-well plate and serially diluted the compound from a 100% DMSO solution at a ratio of 30 μm to 60 μm for a total of 10 concentrations gradients. 3) Transferred 100 μm of 100% DMSO to two empty wells as a no compound control and a no enzyme control.
(§6) 4) Prepared intermediate plate and transferred the compound of 10 μm concentration from the original plate to the intermediate plate, and then 90 μm of 1× kinase buffer was added and mixed by shaking for 10 min.
(§7) 4) Preparing intermediate plate and transferred the compound of […] concentration from the original plate to the intermediate plate, and then 90 μm of 1× kinase buffer was added and mixed by shaking for 10 min.
(§8) 1) Transferred 5 μm of each compound from the 96-well intermediate plate to a 384-well plate. For example, A1 of the 96-well plate was transferred to A1 and A2 of the 384-well plate. A2 of the 96-well plate was transferred to A3 and A4 of the 384-well plate, and so on.
(§9) 1) Prepared a 2.5× enzyme solution: added kinase into 1× kinase base buffer.
(§10) 2) Prepared a 2.5× peptide solution: added FAM-labeled peptide and ATP into the 1× kinase base buffer.
(§11) 3) Transferred the 2.5× enzyme solution to the assay plate: Assay plate already contained 5 μm of 10% DMSO and transferred 10 μm of 2.5× enzyme solution to each well.
(§12) 4) Incubated at room temperature for 10 min.
(§13) 5) Transferred the 2.5× peptide solution to the assay plate: added 10 μm of 2.5× peptide solution to each well of the 384-well assay plate.
(§14) 6) Kinase reaction and termination: incubated at 28° C. for a specified period and added 25 μm of stop buffer to stop the reaction.
(§15) 5. Caliper Reading: Collect Data on Caliper.
(§16) 1) Copied conversion data from Caliper program and Converted conversion values to inhibition values: Inhibition rate (%)=(1−OD value of the compound-OD value of the control well)/(OD value of the control empty-OD value of the control well)*100%.
(§17) 2) Fitted the data in XLFit excel add-in version 4.3.1 to give the corresponding IC50 values.

CDK1/CyclinB = CDK1/CyclinB (Homo sapiens, UniProt P06493); assay: Determination of CDK activity (Caliper mobility shift, FAM-P8 peptide): CDK1; details: CDK1/CyclinB; read-out: CDK1 enzymatic inhibitory activity (IC50)
Sequence of CDK1/CyclinB (P06493 whole entry): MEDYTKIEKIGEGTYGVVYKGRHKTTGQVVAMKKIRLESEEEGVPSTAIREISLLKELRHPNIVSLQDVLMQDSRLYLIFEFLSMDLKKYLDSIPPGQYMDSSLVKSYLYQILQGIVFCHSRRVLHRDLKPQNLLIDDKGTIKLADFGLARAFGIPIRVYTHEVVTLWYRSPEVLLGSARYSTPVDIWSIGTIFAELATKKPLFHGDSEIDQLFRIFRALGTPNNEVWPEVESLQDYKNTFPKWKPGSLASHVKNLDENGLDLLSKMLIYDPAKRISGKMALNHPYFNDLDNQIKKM
Sequence of CDK1/CyclinB (P14635 whole entry partner): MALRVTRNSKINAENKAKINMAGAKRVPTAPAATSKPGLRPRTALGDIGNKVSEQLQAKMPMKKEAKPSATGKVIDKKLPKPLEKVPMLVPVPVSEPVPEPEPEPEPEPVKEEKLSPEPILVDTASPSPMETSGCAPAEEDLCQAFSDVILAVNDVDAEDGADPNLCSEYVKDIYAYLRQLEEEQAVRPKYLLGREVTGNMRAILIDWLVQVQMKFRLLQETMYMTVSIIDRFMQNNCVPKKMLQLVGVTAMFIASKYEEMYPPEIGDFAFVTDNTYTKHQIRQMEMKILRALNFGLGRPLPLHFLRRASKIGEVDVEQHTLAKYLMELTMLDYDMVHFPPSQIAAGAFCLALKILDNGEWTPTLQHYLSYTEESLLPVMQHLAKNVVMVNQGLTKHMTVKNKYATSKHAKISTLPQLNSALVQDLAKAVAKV
Description: as §1, §3
(§18) 1) 1× Kinase Base Buffer (CDK1, 2, and 6).
as §4, §5
(§19) 1) Transferred 5 μm of each compound from the 96-well intermediate plate to a 384-well plate. […] A2 of the 96-well plate was transferred to A3 and A4 of the 384-well plate, and so on.
as §9, §10, §11, §12, §13, §14, §15, §16, §17

CDK9/cyclinTl = CDK9/cyclinTl (Homo sapiens, UniProt P50750); assay: Determination of CDK activity (Caliper mobility shift, FAM-P8 peptide): CDK9; details: CDK9/cyclinTl; read-out: CDK9 enzymatic inhibitory activity (IC50)
Sequence of CDK9/cyclinTl (P50750 whole entry): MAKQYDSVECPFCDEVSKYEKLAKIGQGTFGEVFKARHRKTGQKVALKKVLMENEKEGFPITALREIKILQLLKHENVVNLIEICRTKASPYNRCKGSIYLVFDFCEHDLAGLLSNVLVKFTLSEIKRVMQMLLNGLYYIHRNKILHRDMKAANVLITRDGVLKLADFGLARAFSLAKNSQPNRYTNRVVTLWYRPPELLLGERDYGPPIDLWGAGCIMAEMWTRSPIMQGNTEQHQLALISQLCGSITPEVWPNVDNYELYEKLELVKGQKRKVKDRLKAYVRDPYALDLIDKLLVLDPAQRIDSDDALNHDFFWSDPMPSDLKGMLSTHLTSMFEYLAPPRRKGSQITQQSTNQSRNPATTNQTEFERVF
Sequence of CDK9/cyclinTl (O60563 whole entry partner): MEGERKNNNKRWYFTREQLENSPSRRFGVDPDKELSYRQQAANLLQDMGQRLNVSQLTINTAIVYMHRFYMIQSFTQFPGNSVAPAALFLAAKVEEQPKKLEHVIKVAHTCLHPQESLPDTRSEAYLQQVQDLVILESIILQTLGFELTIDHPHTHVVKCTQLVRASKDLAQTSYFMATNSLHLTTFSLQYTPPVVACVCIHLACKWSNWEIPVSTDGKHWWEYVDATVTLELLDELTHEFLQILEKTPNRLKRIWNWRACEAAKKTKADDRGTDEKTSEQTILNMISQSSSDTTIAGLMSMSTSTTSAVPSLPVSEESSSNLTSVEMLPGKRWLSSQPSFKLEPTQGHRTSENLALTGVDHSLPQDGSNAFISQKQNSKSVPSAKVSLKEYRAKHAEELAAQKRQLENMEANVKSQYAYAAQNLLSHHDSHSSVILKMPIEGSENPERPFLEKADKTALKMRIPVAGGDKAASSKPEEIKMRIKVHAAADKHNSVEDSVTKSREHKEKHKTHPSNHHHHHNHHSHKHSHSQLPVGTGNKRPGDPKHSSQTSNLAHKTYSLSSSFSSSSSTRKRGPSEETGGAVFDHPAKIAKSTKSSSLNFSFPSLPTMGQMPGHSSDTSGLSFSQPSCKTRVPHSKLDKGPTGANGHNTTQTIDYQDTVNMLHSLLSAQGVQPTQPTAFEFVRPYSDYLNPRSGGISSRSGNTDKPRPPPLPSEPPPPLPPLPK
Description: as §1, §3
(§20) 3) 1× Kinase Base Buffer (CDK7 and 9).
as §4, §5, §19, §9, §10, §11, §12, §13, §14, §15, §16, §17

CDK7/CyclinH/MAT1 = CDK7/CyclinH/MAT1 (Homo sapiens, UniProt P50613); assay: Determination of CDK activity (Caliper mobility shift, FAM-P8 peptide): CDK7; details: CDK7/CyclinH/MAT1; read-out: CDK7 enzymatic inhibitory activity (IC50)
Sequence of CDK7/CyclinH/MAT1 (P50613 whole entry): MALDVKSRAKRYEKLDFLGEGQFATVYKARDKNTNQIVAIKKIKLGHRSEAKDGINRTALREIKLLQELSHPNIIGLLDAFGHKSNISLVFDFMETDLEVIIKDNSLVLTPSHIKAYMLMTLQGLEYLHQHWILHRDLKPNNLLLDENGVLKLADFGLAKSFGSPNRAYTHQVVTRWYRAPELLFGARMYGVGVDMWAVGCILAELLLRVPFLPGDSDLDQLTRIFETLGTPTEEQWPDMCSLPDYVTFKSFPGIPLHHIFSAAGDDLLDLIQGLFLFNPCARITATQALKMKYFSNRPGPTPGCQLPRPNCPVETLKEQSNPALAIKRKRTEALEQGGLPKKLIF
Sequence of CDK7/CyclinH/MAT1 (P51946 whole entry partner): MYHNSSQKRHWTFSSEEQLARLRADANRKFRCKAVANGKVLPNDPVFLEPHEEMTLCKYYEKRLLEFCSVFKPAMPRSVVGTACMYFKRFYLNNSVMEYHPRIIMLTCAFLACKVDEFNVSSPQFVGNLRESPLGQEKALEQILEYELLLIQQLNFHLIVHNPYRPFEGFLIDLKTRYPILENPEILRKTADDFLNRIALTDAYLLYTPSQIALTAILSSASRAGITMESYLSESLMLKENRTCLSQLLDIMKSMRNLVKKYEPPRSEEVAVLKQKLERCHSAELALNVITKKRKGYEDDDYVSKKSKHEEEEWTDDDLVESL
Sequence of CDK7/CyclinH/MAT1 (P51948 whole entry partner): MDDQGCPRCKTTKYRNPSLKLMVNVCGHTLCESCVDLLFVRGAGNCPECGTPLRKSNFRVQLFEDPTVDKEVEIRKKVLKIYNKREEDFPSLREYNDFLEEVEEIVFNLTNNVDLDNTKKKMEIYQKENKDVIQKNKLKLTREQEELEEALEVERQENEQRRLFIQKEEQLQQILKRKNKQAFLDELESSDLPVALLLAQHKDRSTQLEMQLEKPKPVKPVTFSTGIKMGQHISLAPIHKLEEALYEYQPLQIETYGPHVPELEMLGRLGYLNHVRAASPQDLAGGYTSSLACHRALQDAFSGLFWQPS
Description: as §1, §2, §3, §20, §4, §5, §6, §7, §8, §9, §10, §11, §12, §13, §14, §15, §16, §17

CDK6/cycD3 = CDK6/cycD3 (Homo sapiens, UniProt Q00534); assay: Determination of CDK activity (Caliper mobility shift, FAM-P8 peptide): CDK6; details: CDK6/cycD3; read-out: CDK6 enzymatic inhibitory activity (IC50)
Sequence of CDK6/cycD3 (Q00534 whole entry): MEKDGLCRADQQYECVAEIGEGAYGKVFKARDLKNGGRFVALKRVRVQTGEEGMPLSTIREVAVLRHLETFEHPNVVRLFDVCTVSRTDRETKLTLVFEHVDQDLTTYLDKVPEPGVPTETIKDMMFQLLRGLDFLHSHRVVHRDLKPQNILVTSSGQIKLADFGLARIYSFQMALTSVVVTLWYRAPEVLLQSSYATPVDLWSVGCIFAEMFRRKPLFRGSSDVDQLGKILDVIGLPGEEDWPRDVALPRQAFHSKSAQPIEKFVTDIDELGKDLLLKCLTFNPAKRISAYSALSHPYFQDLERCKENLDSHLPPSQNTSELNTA
Sequence of CDK6/cycD3 (P30281 whole entry partner): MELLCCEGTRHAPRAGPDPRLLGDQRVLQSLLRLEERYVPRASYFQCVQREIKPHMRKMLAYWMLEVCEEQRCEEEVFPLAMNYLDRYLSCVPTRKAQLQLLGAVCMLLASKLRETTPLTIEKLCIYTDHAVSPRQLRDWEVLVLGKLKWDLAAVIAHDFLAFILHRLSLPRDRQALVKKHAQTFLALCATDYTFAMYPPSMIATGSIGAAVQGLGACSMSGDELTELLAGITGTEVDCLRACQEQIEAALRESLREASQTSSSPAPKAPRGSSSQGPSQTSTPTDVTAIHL
Description: as §1, §2, §3, §18, §4, §5, §6, §7, §8, §9, §10, §11, §12, §13, §14, §15, §16, §17

CDK2/CycA2 = CDK2/CycA2 (Homo sapiens, UniProt P24941); assay: Determination of CDK activity (Caliper mobility shift, FAM-P8 peptide): CDK2; details: CDK2/CycA2; read-out: CDK2 enzymatic inhibitory activity (IC50)
Description: as §1, §3, §18, §4, §5, §19, §9, §10, §11, §12, §13, §14, §15, §16, §17

Sequence of CDK4/CycD3 (P11802 whole entry): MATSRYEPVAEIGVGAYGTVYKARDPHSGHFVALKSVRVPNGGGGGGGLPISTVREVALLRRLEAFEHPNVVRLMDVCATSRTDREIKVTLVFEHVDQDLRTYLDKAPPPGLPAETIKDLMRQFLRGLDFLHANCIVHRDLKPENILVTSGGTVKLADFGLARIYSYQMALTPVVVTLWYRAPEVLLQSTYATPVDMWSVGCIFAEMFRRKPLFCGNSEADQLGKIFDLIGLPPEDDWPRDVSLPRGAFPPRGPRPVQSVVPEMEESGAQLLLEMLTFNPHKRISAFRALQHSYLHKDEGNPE
Sequence of CDK4/CycD3 (P30281 whole entry partner): as the sequence (P30281 whole entry partner) above

SMILES | IC50 (CDK4/CycD3) [nM] | IC50 (CDK1/CyclinB) [nM] | IC50 (CDK9/cyclinTl) [nM] | IC50 (CDK7/CyclinH/MAT1) [nM] | IC50 (CDK6/cycD3) [nM] | IC50 (CDK2/CycA2) [nM]
Cc1nc2c(F)cc(-c3nc(Nc4ccc(C(C)C5CCNCC5)cn4)ncc3F)cc2n1C(C)C (single isomer, unassigned) [Example 19, (R or S)-5-fluoro-4-(4-fluoro-1-isopropyl-2-methyl-1H-benzo[d]imidazol-6-yl)-N-(5-(1-(piperidin-4-yl)ethyl)pyridin-2-yl) pyrimidin-2-amine] | 100 to 500 | 100 to 500 | 100 to 500 | 1000 to 10000 | < 100 | 100 to 500
Cc1nc2c(F)cc(-c3nc(Nc4ccc(C(C)C5CCNCC5)cn4)ncc3F)cc2n1C(C)C (single isomer, unassigned) [Example 20, (R or S)-5-fluoro-4-(4-fluoro-1-isopropyl-2-methyl-1H-benzo[d]imidazol-6-yl)-N-(5-(1-(piperidin-4-yl)ethyl)pyridin-2-yl) pyrimidin-2-amine] | < 100 | 500 to 1000 | 500 to 1000 | 1000 to 10000 | 100 to 500 | 100 to 500
Cc1nc2c(F)cc(-c3nc(Nc4ccc([C@H](C)C5CCN(C)CC5)cn4)ncc3F)cc2n1C(C)C (single isomer, unassigned) [Example 21] | < 100 | 100 to 500 | 100 to 500 | 1000 to 10000 | < 100 | < 100
Cc1nc2c(F)cc(-c3nc(Nc4ccc([C@@H](C)C5CCN(C)CC5)cn4)ncc3F)cc2n1C(C)C (single isomer, unassigned) [Example 22] | < 100 | 500 to 1000 | 500 to 1000 | 1000 to 10000 | 100 to 500 | 100 to 500
CCN1CCC(C(O)c2ccc(Nc3ncc(F)c(-c4cc(F)c5nc(C)n(C(C)C)c5c4)n3)nc2)CC1 (single isomer, unassigned) [Example 41, (R or S)-(1-ethylpiperidin-4-yl)(6-((5-fluoro-4-(4-fluoro-1-isopropyl-2-methyl-1H-benzo [d]imidazol-6-yl)pyrimidin-2-yl)amino)pyridin-3-yl) methanol] | < 100 | 100 to 500 | 100 to 500 | 500 to 1000 | < 100 | < 100
CCN1CCC(C(OC(C)=O)c2ccc(Nc3ncc(F)c(-c4cc(F)c5nc(C)n(C(C)C)c5c4)n3)nc2)CC1 (single isomer, unassigned) [Example 71, (R or S)-(1-ethylpiperidin-4-yl) (6-((5-fluoro-4-(4-fluoro-1-isopropyl-2-methyl-1H-benzo[d]imidazol-6-yl)pyrimidin-2-yl)amino)pyridin-3-yl) methyl acetate] | < 100 | 100 to 500 | 100 to 500 | 1000 to 10000 | < 100 | < 100
CCN1CCC(C(OC(C)=O)c2ccc(Nc3ncc(F)c(-c4cc(F)c5nc(C)n(C(C)C)c5c4)n3)nc2)CC1 (single isomer, unassigned) [Example 72, (R or S)-(1-ethylpiperidin-4-yl) (6-((5-fluoro-4-(4-fluoro-1-isopropyl-2-methyl-1H-benzo[d]imidazol-6-yl)pyrimidin-2-yl)amino)pyridin-3-yl) methyl acetate] | < 100 | 100 to 500 | 100 to 500 | 1000 to 10000 | < 100 | < 100
